From PubChem BioAssay (NCI)
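Tested at 5 concentrations; 48 h exposure; 96-well plates; endpoints linearly interpolated, else capped at highest concentration. GI50 is the concentration that inhibits growth by half. TGI: concentration producing complete growth inhibition.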

Columns and labels:
Assay in all cases: NCI-60 cell line screen, 48 h
[1] = system: HOP-92 NSCLC
[2] = system: UACC-257 melanoma
[3] = system: EKVX NSCLC
[4] = system: A498 renal
[5] = system: OVCAR-8 ovarian
[6] = system: MALME-3M melanoma
[7] = system: SF-295 CNS
[8] = system: MOLT-4 leukemia
[9] = system: LOX IMVI melanoma
[10] = system: UO-31 renal

| SMILES | GI50 [1] [µM] | TGI [1] [µM] | GI50 [2] [µM] | TGI [2] [µM] | GI50 [3] [µM] | TGI [3] [µM] | GI50 [4] [µM] | TGI [4] [µM] | GI50 [5] [µM] | TGI [5] [µM] | GI50 [6] [µM] | TGI [6] [µM] | GI50 [7] [µM] | TGI [7] [µM] | GI50 [8] [µM] | TGI [8] [µM] | GI50 [9] [µM] | TGI [9] [µM] | GI50 [10] [µM] | TGI [10] [µM] |
| --- | --- | --- | --- | --- | --- | --- | --- | --- | --- | --- | --- | --- | --- | --- | --- | --- | --- | --- | --- | --- |
| O=S(=O)(NC1=NCCN1C(=S)SN1CCn2c1nsc2=S)c1ccccc1Cl | 11 | 89.7 | 31.6 | > 100 | 36.6 | > 100 | 24.6 | 59 | 28.6 | > 100 | 12.5 | 67.5 | 21.4 | 61 | 2.02 | 14.1 | 16.5 | 62.9 | 26.1 | > 100 |
| COc1nc2c(nc(N)n2C2OCC(O)C(O)C2O)c(=O)n1C (centres undefined) |  | > 100 |  | > 100 |  | > 100 |  | > 100 |  | > 100 |  | > 100 |  | > 100 |  | > 100 |  | > 100 |  | > 100 |
| O=c1cccccc1[O-].O=c1cccccc1[O-].O=c1cccccc1[O-].[Ce+3] |  | 89.9 |  | 96.9 |  | > 100 | 30.8 | > 100 |  | 73.6 |  | 52.4 |  | 78.1 |  | > 100 |  | > 100 |  | 84.6 |
| O=C(N/N=C/c1ccc(Cl)cc1Cl)c1ccc2nc(-c3ccc(Cl)cc3)[nH]c2c1 | 1.67 | 3.53 | 2.14 | 4.72 | 1.82 | 3.68 | 1.74 | 4.94 | 2.11 | 4.74 | 1.55 | 3.15 | 1.86 | 3.5 | 1.55 | 4.81 | 1.57 | 2.94 | 1.58 | 2.99 |
| COc1cc(F)c(/C=C/c2cc(/C=C/c3cc(OC)c(OC)cc3F)n(-c3cc(F)cc(F)c3)n2)cc1OC | 6 | 21.5 | 1.48 | 3.28 | 4.94 | 55.9 | 14.5 | 28.8 |  |  | 1.78 | 4.06 | 2.97 | 11.4 | 6.64 | > 100 | 2.62 | 8.3 | 14.1 | 34.4 |
| COc1cc(NC(=O)NCc2ccco2)ccc1-c1ccc(NC(=O)NCc2ccco2)cc1OC | 2.67 | 7.76 | 2.72 | > 100 | 3.26 | 31 | 1.72 | 8.25 | 1.88 | 11.7 | 1.65 | 5.56 | 1.25 | 14.4 | 20.3 | > 100 | 1.28 | > 100 | 4.4 | 55.8 |
| CCc1ccc2nccc(NCCCN(C)C)c2c1[N+](=O)[O-] |  | > 100 |  | 81.3 |  | > 100 |  | > 100 |  | > 100 |  | > 100 |  | > 100 |  | > 100 |  | > 100 |  | > 100 |
| CC1(C(=O)O)CCOc2ccccc21 (centres undefined) |  | > 100 |  | > 100 |  | > 100 |  | > 100 |  | > 100 |  | > 100 |  | > 100 |  | > 100 |  | > 100 |  | > 100 |
